Each structure is given as a SMILES string. Structures can show the parent of a compound that is named as a salt. Residues, ends and D or L forms follow the SMILES beside them. *: point of attachment. Tfa = O=C(C(F)(F)F)* Some results are limits rather than exact numbers.

A word on the melting point: it is the temperature of the solid-liquid transition. `CCc1ccc(-c2ccc(C(=O)Nc3ccc4cc(CN5CCCC5)cnc4c3C)c(F)c2)cc1`: the melting point was in the range of 178 to 179 °C. In turn, `Clc1ccc(-c2nc3cccnc3[nH]2)cc1` displayed a melting point of 305 to 308 °C.

Molecule `Cc1noc(C)c1CN1C(=O)C2(COc3cc4c(cc32)OCO4)c2ccccc21` (configuration not stated) had a melting point of 165 to 167 °C. `CCOC(=O)C=Nc1cc(Cl)ccc1C(=O)O` registered a melting point of 166 to 167 °C. Under `CN1C(=O)CCC(C)(C)c2cc(Nc3ncc(Cl)c(Nc4ccccc4S(=O)(=O)N(C)C)n3)ccc21` stands 198 to 200 °C; under `O=C1C(=Cc2ccoc2)CCc2cc(OCCn3ccnc3)ccc21`, 116 to 117 °C; under `CCC(c1cc2c(-c3ccc(C(F)(F)F)n(C)c3=O)c(F)cc(Cl)c2o1)S(C)(=O)=O` (configuration not stated), 146 to 148 °C. In turn, `CCOC(=O)CCc1cccc(C2COc3c(C)c(C)c(NC(=O)CC(C)(C)C)c(C)c32)c1` (configuration not stated) registered a melting point of 136 to 138 °C. Take `CCOC(=O)C1=C(C)NC(c2cscn2)=NC1c1cccc(O)c1` (configuration not stated): the melting point is 180 to 183 °C. Under `CCCCOc1ccc(CC(=O)N[C@@H](C(=O)OCc2ccccc2)[C@@H](C)O)cc1` stands 80 to 83 °C; under `COc1cc(Nc2c(C#N)cnc3cc(-c4cncc(CN5CCOCC5)c4)ccc23)c(Cl)cc1Cl`, 141 to 143 °C; under `Cc1ccc(OCCCN2CCN(c3ccc(Cl)nn3)CC2)cc1`, 129 to 131 °C. The figure for `CCC(=O)C(=Cc1cc(O)c(O)c(C#N)c1)C(=O)CC` is 165 to 173 °C.

In turn, `COc1ccc(C(=O)N2CCCC2=O)cc1` showed a melting point of 120 °C. The figure for `CN1CCC(c2c[nH]c3ccc(C(=O)c4ccc5ccccc5c4)cc23)CC1` is 92 °C; for `CCCc1nc(NC)n2ncc(C(=O)c3ccccc3Cl)c2n1` it is 116 to 118 °C. Under `CCC(O)=C1SC(=S)N(c2ccccc2)C1=O` stands 105 to 111 °C; under `CCc1c(C(=O)c2cc(C)cc(C=CC#N)c2)[nH]c(=O)[nH]c1=O`, 305 to 306 °C.

For `S=C(Oc1ccccc1)c1ccccc1`, the melting point stood at 56 °C. Under `CCCCP(=O)(O)CC(C)(O)CN` (configuration not stated) stands 187 to 189 °C; under `COc1ccc(C2c3cc(NC(=O)CC(C)(C)C)c(C)c(C)c3OC2(C)C)cc1` (configuration not stated), 169 to 170 °C. Molecule `Nc1c2c(nc3ccccc13)CCC=C2` yielded a melting point of 178 to 179 °C. Take `NC1=C(N=O)C(=O)N2CCN=C2N1Cc1ccc(F)cc1`: the melting point was 248 to 250 °C. Molecule `CCOC(=O)c1c(SC2CCCCC2=O)nc2cc(Cl)c(F)cc2c1O` (configuration not stated) registered a melting point of 252 to 257 °C.

Turning to `CC12CCC(=O)C=C1CCC1C2CCC2(C)C(n3cnc4ccccc43)=CCC12` (configuration not stated), the melting point was in the range of 201 to 204 °C. For `O=C(Cn1cccc(O)c1=O)NCCCCCCNC(=O)Cn1cccc(O)c1=O`, the melting point is 240 to 242 °C. The figure for `COc1ccccc1-n1c(=O)[nH]c2c(C(N)=O)nc(Nc3ccccc3O)nc21` is 314 to 315 °C; for `Cc1noc(NS(=O)(=O)c2ccccc2-c2ccc(-c3ncco3)cc2CN(C)C(=O)c2ccccc2Cl)c1C` it is 125 to 135 °C; for `CCOC(=O)C(C)Oc1cc(-n2c(=O)cc(C(F)(F)F)n(C)c2=O)c(F)cc1Cl` (configuration not stated) it is 72 to 74 °C.

The molecule `CCC1(CC(=O)O)OCCc2nc(-c3ccc(Cl)cc3)sc21` (configuration not stated) registered a melting point of 190 to 191 °C. The figure for `c1ccc(-c2cccc3c4c([nH]c23)CCNCC4)cc1` is 143 to 174 °C; for `Cc1ccc(S(=O)(=O)NN=CC(Cl)Cl)cc1` it is 123 °C; for `N#Cc1cc(Br)cc(-c2ccsc2)c1` it is 62 to 63 °C. Consider `O=C(c1ccccc1)n1c(SC(F)(F)F)cc(-c2ccc(F)cc2)c1-c1ccc(F)cc1`, for which the melting point was 106 °C. Under `N=C(NCc1cnccn1)NN=Cc1c(Cl)cccc1Cl` stands 168 to 169 °C; under `CCOC(=O)C1(NC(=O)c2ccc3c(Cl)cnc(Cl)c3c2)CCCC1`, 178 to 180 °C. The figure for `O=C(CC1NC(=O)c2ccsc2-n2cccc21)c1ccccc1` (configuration not stated) is 205 °C; for `Cc1ncccc1C(=O)NCC1CCN(C[C@H]2COc3cccc(Cl)c3O2)CC1` it is 147 to 149 °C; for `Cc1cccc(-c2nc3cccnn3c2-c2ccnc(NCC3CCCO3)c2)c1` (configuration not stated) it is 137 to 138 °C. Regarding `O=C(CCS(=O)(=O)CCOCCc1ccccc1)NCCc1ccc(O)c2[nH]c(=O)sc12`, the melting point lay within 142 to 144 °C. The molecule `COC(=O)C(c1ccccc1)n1cncc1C=O` (configuration not stated) came in with a melting point of 106 to 109 °C. As to `COC(=O)C(Cc1ccccc1)NC(=O)C(CC(=O)O)NC(=O)C(F)(F)F` (stereo not drawn) (Tfa-Asp-Phe-OMe; configuration not given here), the melting point fell in the range of 150 to 151 °C. Regarding `CN1Cc2c(C(N)=S)ncn2-c2ccccc2C1=O`, the melting point is 295 to 297 °C. Under `Cc1cc(-c2cccc(C(F)(F)F)c2)n2nc(C(F)(F)F)nc2n1` stands 133 to 134 °C; under `O=C(Oc1ccccc1)C(=O)Oc1ccccc1`, 132 to 135 °C. Under `Cc1c(Cl)cc(C(C)(C)C)c(O)c1-c1nc2cc(OC(F)(F)F)ccc2[nH]1` stands 243 to 244 °C; under `CC(=O)OCC(=O)C1(O)CCC2C3CCC4=CC(=O)CCC4(C)C3CCC21C` (configuration not stated), 236 °C. Under `COc1ccccc1C(=O)c1ccc(Cl)nc1` stands 46 to 47 °C; under `CS(=O)(=O)Cc1cccc(C(F)(F)F)c1[N+](=O)[O-]`, 110 to 113 °C; under `CN(C)c1ccc2c(c1)C(=O)CC(c1cccc(O)c1)=N2`, 342 to 344 °C. `NS(=O)(=O)c1ncccc1O` came in with a melting point of 162 to 164 °C.

In the case of `CCNC(C)CN1CCc2c(c(=O)oc3ccccc23)C1` (configuration not stated), the melting point fell in the range of 104 to 105 °C. `O=[N+]([O-])c1cccnc1Oc1nn(Cc2ccccc2F)c2ncccc12` showed a melting point of 115 to 117 °C. The figure for `Cc1nc2ccccc2nc1S(=O)Cc1ccccc1N(C)C` (configuration not stated) is 68 to 70 °C; for `CC(C)(C)CNc1nc(Nc2cccc(NS(C)(=O)=O)c2)nc2[nH]cnc12` it is 270 to 273 °C. Under `COCn1ccnc1C(O)(c1ccccc1)c1ccc(F)cc1` (configuration not stated) stands 150 °C.

Consider `CCOP(=O)(OCC)C(P(=O)(OCC)OCC)S(=O)(=O)c1cc(C(C)(C)C)c(O)c(C(C)(C)C)c1`, for which the melting point is 118 to 120 °C.

`COc1ccc(-c2nc(Sc3ccncc3)[nH]c2-c2ccc(OC)cc2)cc1` showed a melting point of 177 to 179 °C. The figure for `N#CC1=C(C2CCNCC2)Nc2n[nH]cc2C1c1cccc2nonc12` (configuration not stated) is 216 °C. Under `CCc1c(-c2ccc(O)cc2)c2ccc3c(N)ccc1n32` stands 147 to 149 °C; under `Cc1ccc(NC(=O)C=Cc2ccccc2)cc1NC(=O)C=Cc1ccccc1`, 217 to 219 °C.

Molecule `O=C(Nc1ncc(Br)cn1)c1ccccc1SSc1ccccc1C(=O)Nc1ncc(Br)cn1` returned a melting point of 249 to 253 °C.

`COC(=O)c1ccc(C(=O)NCC(C)C)c([N+](=O)[O-])c1` gave a melting point of 90 to 91 °C. The figure for `CC(C)(C)OC(=O)NC(=O)C(c1ccccc1)c1ccccc1` is 160 to 162 °C; for `Cc1cc(CCCOc2c(C)cc(-c3noc(C(F)(F)F)n3)cc2C)on1` it is 61 to 62 °C; for `O=C1CCC(N2Cc3c(OCc4ccc(S(=O)(=O)N5CCOCC5)cc4)cccc3C2=O)C(=O)N1` (configuration not stated) it is 308 to 310 °C. The figure for `CN(C)C(=O)CNc1ccncc1[N+](=O)[O-]` is 142 to 143 °C; for `Nc1scc2c(-c3n[nH]c(=O)o3)nn(-c3ccccc3)c(=O)c12` it is more than 250 °C. The figure for `O=c1c(-c2ccccc2)c(CNc2ncnc3[nH]cnc23)oc2ccccc12` is 155 to 158 °C; for `CCOC(=O)C(C#N)(CCN1CCOCC1)c1ccc(C(F)(F)F)cc1` (configuration not stated) it is 96 to 97 °C. In turn, `Cn1ncc(/C=C/C(=O)Nc2ccc(CC(=O)O)cc2)c1-c1ccc(F)cc1` yielded a melting point of 245 to 246 °C. The figure for `Nc1nc(Nc2cccnc2)sc1C(=O)c1ccc(OC(F)F)cc1` is 143 °C. The figure for `CCOC(=O)C[C@@H]1C(=O)N(S(=O)(=O)c2ccc(OC)cc2)C=C[C@@H]1c1ccc(OC)cc1` is 107 to 110 °C. Turning to `O=C1OCCC1N1C(=O)c2cccc3cccc(c23)C1=O` (configuration not stated), the melting point fell in the range of 310 to 312 °C. The figure for `COc1cc(C(C)C)c(NC(=O)CN2CCN(CCSc3nc4cccc(C(C)=O)c4o3)CC2)c(C(C)C)c1` is 185 to 186 °C; for `Cc1c(Cc2ccccc2)c(=O)n(C2CCCC2)c2nc(Nc3ccc(N4CCNCC4)cc3)ncc12` it is 114 °C; for `CCCn1c(=O)c2[nH]c(CCCc3ccccc3)nc2n(CCC)c1=O` it is 137 to 138 °C. The figure for `Cc1oc(-c2ccc(C(F)(F)F)cc2)nc1COc1ccc(CN(O)C(N)=O)cc1` is 146 to 147 °C; for `CN(CCOc1ccc([N+](=O)[O-])cc1)CCc1ccc([N+](=O)[O-])cc1` it is 74 °C; for `COc1cc2c(cc1N1CCNCC1)OCC2` it is 108 to 109 °C. For the molecule `CCCCCCC(C)(Sc1cc(C(C)(C)C)c(O)c(C(C)(C)C)c1)Sc1cc(C(C)(C)C)c(O)c(C(C)(C)C)c1`, the melting point is 130 to 133 °C. The figure for `O=C1CCCc2cc(O)c(Cl)c(Cl)c21` is 244 to 246 °C; for `Cc1nc(-c2c(Cl)cc(C(F)(F)F)cc2Cl)[nH]c1[N+](=O)[O-]` it is 316 to 318 °C.

Consider `NCc1[nH]c2cc(Br)c(Cl)cc2c1-c1ccccc1`, for which the melting point was 162 to 163 °C. As to `COc1cc(OC)c2c(=O)[nH]c(-c3cc(C)c(OCCN4C(=O)CN(C(C)C)C4=O)c(C)c3)nc2c1`, the melting point is 219 to 221 °C. The figure for `CCc1cc(C)cc(CC)c1C1C(=O)C2CC(C3OCCCO3)CC2C1=O` (configuration not stated) is 100 to 101 °C; for `COc1ccc(CNC(=O)[C@@H](NC(=O)[C@H](NCc2ccc(OC)c(OC)c2)[C@H](O)[C@H](Cc2ccccc2)NC(=O)OC(C)(C)C)C(C)C)c(O)c1` it is 144 °C.

Values taken from a melting point compilation (Tetko et al.; mined from patent text by program, amines drawn as free bases though some values may be those of a salt).
